In data set [1] the test system is human cardiac OOC. In words: Cardiac OOC hydrogen peroxide (ROS-Glo H2O2) assay. It counts as cell-based. The settings on record: after linsitinib treatment. The procedure:
(§1) Tissues were randomly assigned to experimental groups. Medium was changed every day. Cardiac tissues were exposed to linsitinib for 3 days.
Hydrogen peroxide assay: After drug treatment, hydrogen peroxide (H2O2) levels in cardiac tissues were measured using ROS-Glo™ H2O2 Assay (Promega).

The test system of data set [2] is human cardiac OOC. The data set is described as follows: Cardiac OOC extracellular LDH cytotoxicity assay. To be noted: after linsitinib exposure. Format: cell-based. The procedure:
as §1
Cell viability: Cancer cell viability was measured for GFP-Luciferase labelled cancer cells using ONE-Glo luciferase substrate that was prepared according to manufacturer's protocol (Promega). Samples were collected following 3, 7, and 21-day cycles of Linsitinib treatment. Cardiac cell viability was assessed through the Pierce LDH Cytotoxicity Assay Kit (Thermo Fisher Scientific). Samples were collected at 0 h, 1 h and 72 h.

The subject of the next data set is ES model. The data set is described as follows: Immunohistochemical Ki67 staining and TUNEL assay of the ES model. It counts as cell-based, human. The settings on record: ES model after linsitinib treatment. An excerpt: To assess apoptosis, paraffin embedded tissue sections were first deparaffinized with CitriSolv, rehydrated with graded series of ethanol washes, and then stained with a Click-iT® TUNEL Alexa Fluor® imaging assay (Thermo Fisher Scientific).

Another data set deals with TE-ES and TE-OS models. In words: Linsitinib titration on TE-ES and TE-OS bone tumor models, luminescence as cancer cell viability. Format: cell-based, human. To be noted: 21-day treatment cycle. The method, then: The cells were allowed to attach for 2 hours, and then supplemented with additional mesenchymal stem cell medium overnight. The following day, osteogenic differentiation of the seeded cells was initiated by addition of low glucose DMEM supplemented with 1 μM dexamethasone (Sigma-Aldrich), 10 mM β-glycerophosphate (SigmaAldrich), and 50 μM L-ascorbic acid-2-phosphate (Sigma Aldrich). Each scaffold was incubated in 4 mL of osteogenic media, with media changes three times a week, for 3 weeks, allowing for the MSCs to differentiate into functional, maturing osteoblasts. Two weeks following the initiation of osteogenic differentiation, aggregates of tumor cells were prepared as described previously. Briefly, 0.3×10^6 cells were used to form ES aggregates and 0.5×10^6 cells were used to form OS aggregates. After 1 week of culture, the primary bone tumor aggregates were infused into the differentiated osteoblastseeded bone scaffolds (3 aggregates per scaffold, placed apart of each other). […] Cell viability: Cancer cell viability was measured for GFP-Luciferase labelled cancer cells using ONE-Glo luciferase substrate that was prepared according to manufacturer's protocol (Promega). […] Cardiac cell viability was assessed through the Pierce LDH Cytotoxicity Assay Kit (Thermo Fisher Scientific). […]

Data set [3] has as its system metastatic (KHOS/NP cell line derived) osteosarcoma OOC. The data set is described as follows: Metastatic osteosarcoma OOC, luciferase luminescence (cancer cell number and viability). Format: cell-based, human. The settings on record: 12 μM. The procedure:
Drug treatment experiments recapitulating the patient treatment regimens and the patient plasma concentration of 12 μM of linsitinib were then carried out on the nonmetastatic and metastatic TE-ES and OS models. FIGS. 44 and 45 are graphs illustrating non-metastatic (U2-OS cell line derived, FIG. 44) and metastatic (KHOS/NP cell line derived, FIG. 45) osteosarcoma OOCs exposed to linsitinib (12 μM) according to the drug treatment regimen outlined. Luminescence as a function of cancer cell number and viability was measured (mean±s.e.m., n=6 for day 3, and n=3 for day 7 and 21, biologically independent per group). Significance was determined by unpaired two-tailed Student's t test of treatment group at specific day with respective control; *P<0.05; **P<0.01; ***P<0.001. Tissue engineered bone tumor models: Using an established protocol, expanded MSCs were seeded into the bone matrix scaffolds (4 mm×4 mm×1 mm) at a concentration of 10^6 cells per scaffold, using 40 μL of medium. The cells were allowed to attach for 2 hours, and then supplemented with additional mesenchymal stem cell medium overnight. The following day, osteogenic differentiation of the seeded cells was initiated by addition of low glucose DMEM supplemented with 1 μM dexamethasone (Sigma-Aldrich), 10 mM β-glycerophosphate (SigmaAldrich), and 50 μM L-ascorbic acid-2-phosphate (Sigma Aldrich). Each scaffold was incubated in 4 mL of osteogenic media, with media changes three times a week, for 3 weeks, allowing for the MSCs to differentiate into functional, maturing osteoblasts. Two weeks following the initiation of osteogenic differentiation, aggregates of tumor cells were prepared as described previously. Briefly, 0.3×10^6 cells were used to form ES aggregates and 0.5×10^6 cells were used to form OS aggregates. […] Cell viability: Cancer cell viability was measured for GFP-Luciferase labelled cancer cells using ONE-Glo luciferase substrate that was prepared according to manufacturer's protocol (Promega). […] Cardiac cell viability was assessed through the Pierce LDH Cytotoxicity Assay Kit (Thermo Fisher Scientific). […]

Each structure is given as a SMILES string.

Results on one compound are retold here after patent US12529022B2, “Human organ-on-chip models for predictive screening” (The Trustees of Columbia University in the City of New York, priority 2018, dated 2026).

Consider `C[C@]1(O)C[C@@H](c2nc(-c3ccc4ccc(-c5ccccc5)nc4c3)c3c(N)nccn32)C1` [linsitinib, Linsitinib (OSI-906)], for which, in the data set with human cardiac OOC [1], the “levels of reactive oxygen species (hydrogen peroxide formation)” value is recorded as “not observed”. For the same compound, the “extracellular lactate dehydrogenase (LDH)” value with human cardiac OOC [2] is on record as “increased levels”. Moreover, in the data set with ES model, the “apoptosis by TUNEL assay” value is recorded as “increases in apoptosis” and the “proliferation via Ki67-staining” value was “reduced proliferation”. The “luminescence signal as indicator of cancer cell viability” value in the data set with TE-ES and TE-OS models (12 μM, ES and OS models) is on record as “significant responses”. Also, in the data set with TE-ES and TE-OS models (linsitinib titration), the “luminescence signal as indicator of cancer cell viability, titration” value is given as “dose response”. For the same compound, the “luminescence (cancer cell number and viability) vs control” value in data set [3] (after 3 days) is given as “significant drug response”. For the same compound, the drug efficacy entry in data set [3] (by day 7) is listed as “stopped being effective”. For the same compound, the course of tumor result in data set [3] (day 7 to D21) was “rapidly expand before stabilizing by D21”.
